Data taken from PubChem BioAssay (NCI).
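Five compound concentrations were applied to cells in 96-well plates for 48 hours; endpoints were derived by simple linear interpolation of the resulting dose-response curve. GI50 = concentration required for 50% inhibition of growth. TGI: concentration producing complete growth inhibition.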

Key:
Assay in all cases: inhibition of tumour cell growth, NCI panel, 48 h
LOX IMVI melanoma = tested on: LOX IMVI melanoma
UACC-257 melanoma = tested on: UACC-257 melanoma
NCI-H23 lung = tested on: NCI-H23 lung
SF-295 CNS = tested on: SF-295 CNS
SK-MEL-2 melanoma = tested on: SK-MEL-2 melanoma
SF-539 CNS = tested on: SF-539 CNS
SK-MEL-28 melanoma = tested on: SK-MEL-28 melanoma
SNB-19 CNS = tested on: SNB-19 CNS
786-0 renal = tested on: 786-0 renal
HL-60(TB) leukemia = tested on: HL-60(TB) leukemia
HS 578T breast = tested on: HS 578T breast
M14 melanoma = tested on: M14 melanoma
MDA-MB-435 = tested on: MDA-MB-435
SW-620 colon = tested on: SW-620 colon
SF-268 CNS = tested on: SF-268 CNS
COLO 205 colon = tested on: COLO 205 colon
CAKI-1 renal = tested on: CAKI-1 renal
MDA-MB-231 breast = tested on: MDA-MB-231 breast
HOP-92 NSCLC = tested on: HOP-92 NSCLC
HCT-116 colon = tested on: HCT-116 colon
TK-10 renal = tested on: TK-10 renal
SNB-75 CNS = tested on: SNB-75 CNS
ACHN renal = tested on: ACHN renal
HT29 colon = tested on: HT29 colon
NCI-H522 lung = tested on: NCI-H522 lung
MOLT-4 leukemia = tested on: MOLT-4 leukemia
U251 CNS = tested on: U251 CNS
SN12C renal = tested on: SN12C renal
UO-31 renal = tested on: UO-31 renal
SK-MEL-5 melanoma = tested on: SK-MEL-5 melanoma
BT-549 breast = tested on: BT-549 breast
CCRF-CEM leukemia = tested on: CCRF-CEM leukemia
RPMI-8226 leukemia = tested on: RPMI-8226 leukemia
NCI/ADR-RES ovarian = tested on: NCI/ADR-RES ovarian
NCI-H226 lung = tested on: NCI-H226 lung
OVCAR-4 ovarian = tested on: OVCAR-4 ovarian
EKVX NSCLC = tested on: EKVX NSCLC
MALME-3M melanoma = tested on: MALME-3M melanoma
A498 renal = tested on: A498 renal
SR leukemia = tested on: SR leukemia
NCI-H460 lung = tested on: NCI-H460 lung
HCT-15 colon = tested on: HCT-15 colon
IGROV1 ovarian = tested on: IGROV1 ovarian
UACC-62 melanoma = tested on: UACC-62 melanoma
K-562 leukemia = tested on: K-562 leukemia
DU-145 prostate = tested on: DU-145 prostate
HOP-62 NSCLC = tested on: HOP-62 NSCLC
OVCAR-5 ovarian = tested on: OVCAR-5 ovarian
MCF7 breast = tested on: MCF7 breast
PC-3 prostate = tested on: PC-3 prostate
OVCAR-8 ovarian = tested on: OVCAR-8 ovarian
SK-OV-3 ovarian = tested on: SK-OV-3 ovarian
A549 NSCLC = tested on: A549 NSCLC
KM12 colon = tested on: KM12 colon
OVCAR-3 ovarian = tested on: OVCAR-3 ovarian
T-47D breast = tested on: T-47D breast

SMILES: COc1ccc(N2CCN(C(=O)c3ccc(C(F)(F)F)nc3Nc3cc(Cl)ccc3C)CC2)cc1
- GI50 (LOX IMVI melanoma): 10.4 µM
- TGI (LOX IMVI melanoma): 22.1 µM
- GI50 (UACC-257 melanoma): 10.7 µM
- TGI (UACC-257 melanoma): 28.3 µM
- GI50 (NCI-H23 lung): 9.12 µM
- TGI (NCI-H23 lung): 23.9 µM
- GI50 (SF-295 CNS): 9.78 µM
- TGI (SF-295 CNS): 27.9 µM
- GI50 (SK-MEL-2 melanoma): 0.949 µM
- TGI (SK-MEL-2 melanoma): 19 µM
- GI50 (SF-539 CNS): 10.7 µM
- TGI (SF-539 CNS): 24.7 µM
- GI50 (SK-MEL-28 melanoma): 14 µM
- TGI (SK-MEL-28 melanoma): 30.3 µM
- GI50 (SNB-19 CNS): 9.17 µM
- TGI (SNB-19 CNS): 22.5 µM
- GI50 (786-0 renal): 4.47 µM
- TGI (786-0 renal): 16.8 µM
- GI50 (HL-60(TB) leukemia): 6.94 µM
- TGI (HL-60(TB) leukemia): 28.6 µM
- GI50 (HS 578T breast): 4.09 µM
- TGI (HS 578T breast): 22.1 µM
- GI50 (M14 melanoma): 10.6 µM
- TGI (M14 melanoma): 22.6 µM
- GI50 (MDA-MB-435): 11.2 µM
- TGI (MDA-MB-435): 27.5 µM
- GI50 (SW-620 colon): 10.5 µM
- TGI (SW-620 colon): 22.4 µM
- GI50 (SF-268 CNS): 7.04 µM
- TGI (SF-268 CNS): 22.4 µM
- GI50 (COLO 205 colon): 11.4 µM
- TGI (COLO 205 colon): 26.2 µM
- GI50 (CAKI-1 renal): 1.38 µM
- TGI (CAKI-1 renal): 8.36 µM
- GI50 (MDA-MB-231 breast): 4.09 µM
- TGI (MDA-MB-231 breast): 15.6 µM
- GI50 (HOP-92 NSCLC): 1.49 µM
- TGI (HOP-92 NSCLC): 7.97 µM
- GI50 (HCT-116 colon): 6.38 µM
- TGI (HCT-116 colon): 19 µM
- GI50 (TK-10 renal): 15 µM
- TGI (TK-10 renal): 34.6 µM
- GI50 (SNB-75 CNS): 3.66 µM
- TGI (SNB-75 CNS): 22.6 µM
- GI50 (ACHN renal): 7.78 µM
- TGI (ACHN renal): 31.1 µM
- GI50 (HT29 colon): 4.45 µM
- TGI (HT29 colon): 18 µM
- GI50 (NCI-H522 lung): 3.38 µM
- TGI (NCI-H522 lung): 22.3 µM
- GI50 (MOLT-4 leukemia): 4.49 µM
- TGI (MOLT-4 leukemia): 29.6 µM
- GI50 (U251 CNS): 9.37 µM
- TGI (U251 CNS): 21.2 µM
- GI50 (SN12C renal): 11.8 µM
- TGI (SN12C renal): 24.4 µM
- GI50 (UO-31 renal): 1.69 µM
- TGI (UO-31 renal): 10.9 µM
- GI50 (SK-MEL-5 melanoma): 8.02 µM
- TGI (SK-MEL-5 melanoma): 20.8 µM
- GI50 (BT-549 breast): 10.2 µM
- TGI (BT-549 breast): 23.7 µM
- GI50 (CCRF-CEM leukemia): 8.79 µM
- TGI (CCRF-CEM leukemia): 38.5 µM
- GI50 (RPMI-8226 leukemia): 7.46 µM
- TGI (RPMI-8226 leukemia): 49.2 µM
- GI50 (NCI/ADR-RES ovarian): 10.1 µM
- TGI (NCI/ADR-RES ovarian): 27.3 µM
- GI50 (NCI-H226 lung): 14.3 µM
- TGI (NCI-H226 lung): 36.3 µM
- GI50 (OVCAR-4 ovarian): 7.83 µM
- TGI (OVCAR-4 ovarian): 29.9 µM
- GI50 (EKVX NSCLC): 2.67 µM
- TGI (EKVX NSCLC): 21.1 µM
- GI50 (MALME-3M melanoma): 10.6 µM
- TGI (MALME-3M melanoma): 28.4 µM
- GI50 (A498 renal): 6.01 µM
- TGI (A498 renal): 19.8 µM
- GI50 (SR leukemia): 4.65 µM
- TGI (SR leukemia): 39 µM
- GI50 (NCI-H460 lung): 6.11 µM
- TGI (NCI-H460 lung): 21 µM
- GI50 (HCT-15 colon): 7.71 µM
- TGI (HCT-15 colon): 21.2 µM
- GI50 (IGROV1 ovarian): 0.0509 µM
- TGI (IGROV1 ovarian): 20.3 µM
- GI50 (UACC-62 melanoma): 8.15 µM
- TGI (UACC-62 melanoma): 20.8 µM
- GI50 (K-562 leukemia): 4.76 µM
- TGI (K-562 leukemia): 22.8 µM
- GI50 (DU-145 prostate): 14.7 µM
- TGI (DU-145 prostate): 31 µM
- GI50 (HOP-62 NSCLC): 13.2 µM
- TGI (HOP-62 NSCLC): 25.9 µM
- GI50 (OVCAR-5 ovarian): 10.6 µM
- TGI (OVCAR-5 ovarian): 25.1 µM
- GI50 (MCF7 breast): 2.88 µM
- TGI (MCF7 breast): 21 µM
- GI50 (PC-3 prostate): 5.44 µM
- TGI (PC-3 prostate): 32.7 µM
- GI50 (OVCAR-8 ovarian): 11.3 µM
- TGI (OVCAR-8 ovarian): 38.7 µM
- GI50 (SK-OV-3 ovarian): 4.67 µM
- TGI (SK-OV-3 ovarian): 22.1 µM
- GI50 (A549 NSCLC): 10.2 µM
- TGI (A549 NSCLC): 27.7 µM
- GI50 (KM12 colon): 6.91 µM
- TGI (KM12 colon): 20.8 µM
- GI50 (OVCAR-3 ovarian): 2.98 µM
- TGI (OVCAR-3 ovarian): 19 µM
- GI50 (T-47D breast): 2.8 µM
- TGI (T-47D breast): 26.2 µM
